Laboratory results: the kinase profiling compilation of Christmann-Franck et al. (2016)

What was measured:
Assay in all cases: radiometric filter-binding kinase assay, Kinase HotSpot
Settings in all cases: compound 0.5 µM; ATP 10 µM
[1] = molecular target: WNK3 (human) (UniProt Q9BYP7)
[2] = molecular target: MARK3 (human) (UniProt P27448)
[3] = molecular target: MAP2K1 (human) (UniProt Q02750)
[4] = molecular target: WNK2 (human) (UniProt Q9Y3S1)
[5] = molecular target: MAP2K2 (human) (UniProt P36507)
[6] = molecular target: AURKC (human) (UniProt Q9UQB9)
[7] = molecular target: SGK3 (human) (UniProt Q96BR1)
[8] = molecular target: PRKCG (human) (UniProt P05129)
[9] = molecular target: CLK3 (human) (UniProt P49761)
[10] = molecular target: NEK2 (human) (UniProt P51955)
[11] = molecular target: STK17A (human) (UniProt Q9UEE5)
[12] = molecular target: PKN1 (human) (UniProt Q16512)
[13] = molecular target: ABL2 (human) (UniProt P42684)
[14] = molecular target: MAPK13 (human) (UniProt O15264)
[15] = molecular target: BMX (human) (UniProt P51813)
[16] = molecular target: IRAK1 (human) (UniProt P51617)
[17] = molecular target: EPHA4 (human) (UniProt P54764)
[18] = molecular target: MAPK14 (human) (UniProt Q16539)
[19] = molecular target: MATK (human) (UniProt P42679)
[20] = molecular target: DMPK (human) (UniProt Q09013)
[21] = molecular target: CDK9 CCNK (human) (UniProt O75909+P50750)
[22] = molecular target: EPHA8 (human) (UniProt P29322)
[23] = molecular target: PDPK1 (human) (UniProt O15530)
[24] = molecular target: MAPKAPK2 (human) (UniProt P49137)
[25] = molecular target: CDK5 CDK5R1 p25 (human) (UniProt Q00535+Q15078)
[26] = molecular target: MERTK (human) (UniProt Q12866)
[27] = molecular target: IGF1R (human) (UniProt P08069)
[28] = molecular target: BRSK1 (human) (UniProt Q8TDC3)
[29] = molecular target: CAMKK2 (human) (UniProt Q96RR4)
[30] = molecular target: DYRK1A (human) (UniProt Q13627)
[31] = molecular target: HIPK1 (human) (UniProt Q86Z02)
[32] = molecular target: EPHB3 (human) (UniProt P54753)
[33] = molecular target: ERBB4 (human) (UniProt Q15303)
[34] = molecular target: MYLK2 (human) (UniProt Q9H1R3)
[35] = molecular target: MARK4 (human) (UniProt Q96L34)
[36] = molecular target: PASK (human) (UniProt Q96RG2)
[37] = molecular target: FGFR4 (human) (UniProt P22455)
[38] = molecular target: CSNK1D (human) (UniProt P48730)
[39] = molecular target: IKBKE (human) (UniProt Q14164)
[40] = molecular target: PRKCI (human) (UniProt P41743)
[41] = molecular target: CSK (human) (UniProt P41240)

IRAK1 (human), sequence (P51617 whole entry, looked up): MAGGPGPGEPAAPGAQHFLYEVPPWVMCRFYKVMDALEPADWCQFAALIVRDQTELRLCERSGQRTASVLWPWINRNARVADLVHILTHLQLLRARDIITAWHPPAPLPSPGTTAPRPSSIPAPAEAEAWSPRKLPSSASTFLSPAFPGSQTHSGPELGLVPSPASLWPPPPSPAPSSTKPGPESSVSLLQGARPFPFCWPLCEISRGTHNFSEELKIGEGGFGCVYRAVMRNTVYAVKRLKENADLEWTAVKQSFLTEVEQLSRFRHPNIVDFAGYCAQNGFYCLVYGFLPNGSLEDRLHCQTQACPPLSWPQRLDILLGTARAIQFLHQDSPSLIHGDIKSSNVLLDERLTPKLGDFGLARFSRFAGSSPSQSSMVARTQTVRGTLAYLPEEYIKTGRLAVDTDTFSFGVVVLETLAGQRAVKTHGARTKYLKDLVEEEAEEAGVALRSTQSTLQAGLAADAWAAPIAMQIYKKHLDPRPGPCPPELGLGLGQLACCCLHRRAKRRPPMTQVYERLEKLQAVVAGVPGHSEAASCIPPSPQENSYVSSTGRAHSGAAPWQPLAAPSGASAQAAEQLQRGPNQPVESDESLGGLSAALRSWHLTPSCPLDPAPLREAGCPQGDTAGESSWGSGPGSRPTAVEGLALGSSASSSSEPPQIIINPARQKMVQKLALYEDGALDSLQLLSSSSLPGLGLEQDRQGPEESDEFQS
WNK2 (human), sequence (Q9Y3S1 whole entry, looked up): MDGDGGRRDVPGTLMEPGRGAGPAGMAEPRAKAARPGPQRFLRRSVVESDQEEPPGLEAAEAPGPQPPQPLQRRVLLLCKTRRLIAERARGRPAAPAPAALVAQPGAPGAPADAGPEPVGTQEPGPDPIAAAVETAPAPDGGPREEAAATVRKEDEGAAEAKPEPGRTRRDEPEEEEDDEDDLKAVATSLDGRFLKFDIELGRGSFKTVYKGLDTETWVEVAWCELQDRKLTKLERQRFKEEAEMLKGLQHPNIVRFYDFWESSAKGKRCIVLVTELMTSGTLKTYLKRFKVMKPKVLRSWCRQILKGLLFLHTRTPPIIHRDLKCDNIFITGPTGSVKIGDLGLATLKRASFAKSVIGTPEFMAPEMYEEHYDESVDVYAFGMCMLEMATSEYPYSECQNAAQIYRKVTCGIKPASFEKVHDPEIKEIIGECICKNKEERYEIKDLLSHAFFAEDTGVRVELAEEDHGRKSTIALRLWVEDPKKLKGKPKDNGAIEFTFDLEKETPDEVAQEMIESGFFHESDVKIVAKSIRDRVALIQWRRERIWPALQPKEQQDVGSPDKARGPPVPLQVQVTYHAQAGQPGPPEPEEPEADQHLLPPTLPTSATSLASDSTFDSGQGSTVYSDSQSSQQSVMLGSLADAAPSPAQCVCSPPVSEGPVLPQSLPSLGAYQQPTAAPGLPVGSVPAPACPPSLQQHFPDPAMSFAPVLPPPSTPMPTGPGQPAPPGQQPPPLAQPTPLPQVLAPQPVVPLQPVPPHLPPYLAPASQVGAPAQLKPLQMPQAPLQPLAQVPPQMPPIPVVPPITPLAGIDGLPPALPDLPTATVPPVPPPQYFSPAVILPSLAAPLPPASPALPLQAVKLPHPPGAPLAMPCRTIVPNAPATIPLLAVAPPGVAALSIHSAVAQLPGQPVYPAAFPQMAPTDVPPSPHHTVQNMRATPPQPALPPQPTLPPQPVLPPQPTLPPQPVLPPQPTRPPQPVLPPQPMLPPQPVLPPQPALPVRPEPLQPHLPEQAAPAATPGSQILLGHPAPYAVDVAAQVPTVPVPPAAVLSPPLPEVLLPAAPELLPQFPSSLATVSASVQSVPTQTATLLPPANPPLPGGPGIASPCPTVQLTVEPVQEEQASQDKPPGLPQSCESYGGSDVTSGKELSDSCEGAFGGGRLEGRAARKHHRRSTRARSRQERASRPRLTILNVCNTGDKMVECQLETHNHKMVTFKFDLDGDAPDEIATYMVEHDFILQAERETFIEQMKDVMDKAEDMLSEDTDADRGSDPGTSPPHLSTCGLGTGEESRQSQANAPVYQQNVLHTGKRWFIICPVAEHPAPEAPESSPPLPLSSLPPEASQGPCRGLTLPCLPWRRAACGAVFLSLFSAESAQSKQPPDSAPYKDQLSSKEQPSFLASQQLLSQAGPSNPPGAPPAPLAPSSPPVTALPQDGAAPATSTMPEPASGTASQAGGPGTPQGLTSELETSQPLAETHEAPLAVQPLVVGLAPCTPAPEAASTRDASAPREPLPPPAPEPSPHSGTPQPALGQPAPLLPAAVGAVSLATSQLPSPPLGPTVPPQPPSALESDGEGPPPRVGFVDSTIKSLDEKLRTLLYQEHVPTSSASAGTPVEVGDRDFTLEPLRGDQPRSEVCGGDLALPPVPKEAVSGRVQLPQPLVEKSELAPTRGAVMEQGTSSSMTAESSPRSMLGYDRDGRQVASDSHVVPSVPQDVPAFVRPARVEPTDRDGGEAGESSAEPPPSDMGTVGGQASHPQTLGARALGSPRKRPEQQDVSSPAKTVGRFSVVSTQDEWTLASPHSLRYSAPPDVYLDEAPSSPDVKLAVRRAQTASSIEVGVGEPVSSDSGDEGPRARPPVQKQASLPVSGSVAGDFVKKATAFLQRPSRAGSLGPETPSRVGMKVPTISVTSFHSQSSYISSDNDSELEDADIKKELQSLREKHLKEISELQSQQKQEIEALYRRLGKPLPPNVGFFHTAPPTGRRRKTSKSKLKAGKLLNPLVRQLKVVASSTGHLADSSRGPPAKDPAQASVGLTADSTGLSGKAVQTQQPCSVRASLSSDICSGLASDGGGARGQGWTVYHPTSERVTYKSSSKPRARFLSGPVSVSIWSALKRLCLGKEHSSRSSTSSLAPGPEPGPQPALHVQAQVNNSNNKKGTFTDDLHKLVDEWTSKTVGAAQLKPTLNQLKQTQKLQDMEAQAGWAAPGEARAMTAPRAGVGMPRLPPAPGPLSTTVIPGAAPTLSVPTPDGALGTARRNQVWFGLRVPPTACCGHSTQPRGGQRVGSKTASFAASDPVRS
MAP2K1 (human), sequence (Q02750 whole entry, looked up): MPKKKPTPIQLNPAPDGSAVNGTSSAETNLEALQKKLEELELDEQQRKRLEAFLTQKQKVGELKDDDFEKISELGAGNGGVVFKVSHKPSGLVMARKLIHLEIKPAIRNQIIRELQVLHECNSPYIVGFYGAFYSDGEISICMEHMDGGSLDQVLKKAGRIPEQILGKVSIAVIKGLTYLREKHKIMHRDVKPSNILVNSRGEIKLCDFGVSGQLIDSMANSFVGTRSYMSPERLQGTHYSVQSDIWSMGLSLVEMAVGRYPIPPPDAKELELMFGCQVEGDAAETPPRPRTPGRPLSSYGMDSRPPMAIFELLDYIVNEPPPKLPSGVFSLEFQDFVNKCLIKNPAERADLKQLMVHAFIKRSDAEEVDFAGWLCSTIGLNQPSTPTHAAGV
IGF1R (human), sequence (P08069 whole entry, looked up): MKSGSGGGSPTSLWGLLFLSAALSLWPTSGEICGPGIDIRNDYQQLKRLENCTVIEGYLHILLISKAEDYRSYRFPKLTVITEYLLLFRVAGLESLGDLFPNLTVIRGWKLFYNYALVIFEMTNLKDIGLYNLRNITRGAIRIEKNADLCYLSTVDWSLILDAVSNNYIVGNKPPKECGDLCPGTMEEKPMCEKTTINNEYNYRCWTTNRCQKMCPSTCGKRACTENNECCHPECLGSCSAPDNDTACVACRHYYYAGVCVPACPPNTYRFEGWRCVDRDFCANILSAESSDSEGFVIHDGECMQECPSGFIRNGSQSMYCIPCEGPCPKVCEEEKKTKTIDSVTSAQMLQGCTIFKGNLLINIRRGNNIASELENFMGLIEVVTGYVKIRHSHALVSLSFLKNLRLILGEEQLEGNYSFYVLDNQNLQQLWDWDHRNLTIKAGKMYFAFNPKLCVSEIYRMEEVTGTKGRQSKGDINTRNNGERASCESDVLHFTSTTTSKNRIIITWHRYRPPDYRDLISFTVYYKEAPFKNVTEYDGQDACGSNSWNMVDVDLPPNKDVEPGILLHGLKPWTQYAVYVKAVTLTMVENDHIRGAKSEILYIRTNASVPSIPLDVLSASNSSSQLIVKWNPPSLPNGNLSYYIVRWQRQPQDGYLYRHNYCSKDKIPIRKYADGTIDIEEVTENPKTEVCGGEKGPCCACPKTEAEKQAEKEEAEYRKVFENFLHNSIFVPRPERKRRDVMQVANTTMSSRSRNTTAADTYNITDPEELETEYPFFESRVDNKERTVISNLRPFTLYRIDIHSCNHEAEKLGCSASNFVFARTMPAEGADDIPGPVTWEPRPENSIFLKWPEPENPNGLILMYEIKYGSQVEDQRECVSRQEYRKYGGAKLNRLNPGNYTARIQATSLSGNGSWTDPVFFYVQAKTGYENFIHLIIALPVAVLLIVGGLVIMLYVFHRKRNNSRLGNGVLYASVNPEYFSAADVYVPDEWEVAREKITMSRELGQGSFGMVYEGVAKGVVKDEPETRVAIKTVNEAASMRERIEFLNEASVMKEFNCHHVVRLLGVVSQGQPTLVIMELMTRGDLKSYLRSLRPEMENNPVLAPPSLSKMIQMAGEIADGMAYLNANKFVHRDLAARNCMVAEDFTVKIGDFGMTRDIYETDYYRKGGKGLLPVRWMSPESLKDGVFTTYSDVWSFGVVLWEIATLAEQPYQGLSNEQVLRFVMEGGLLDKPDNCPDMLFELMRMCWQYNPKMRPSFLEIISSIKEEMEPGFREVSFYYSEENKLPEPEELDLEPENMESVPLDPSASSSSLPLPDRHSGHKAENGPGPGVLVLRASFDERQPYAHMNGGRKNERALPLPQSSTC
AURKC (human), sequence (Q9UQB9 whole entry, looked up): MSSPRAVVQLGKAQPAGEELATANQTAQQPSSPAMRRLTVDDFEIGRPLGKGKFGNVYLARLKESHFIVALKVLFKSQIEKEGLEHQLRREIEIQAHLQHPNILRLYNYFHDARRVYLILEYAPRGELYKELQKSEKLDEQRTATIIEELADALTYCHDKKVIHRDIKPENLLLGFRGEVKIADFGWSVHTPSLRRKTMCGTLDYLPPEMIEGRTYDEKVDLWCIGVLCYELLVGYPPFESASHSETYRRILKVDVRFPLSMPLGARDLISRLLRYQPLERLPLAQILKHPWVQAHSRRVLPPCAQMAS

Cc1ccc(NC(=O)c2ccc(CN3CCN(C)CC3)cc2)cc1Nc1nc(-c2cccnc2)cs1
residual activity [1]: 99.9%
residual activity [2]: 100%
residual activity [3]: 111%
residual activity [4]: 99.2%
residual activity [5]: 114%
residual activity [6]: 112%
residual activity [7]: 95.6%
residual activity [8]: 95.8%
residual activity [9]: 93.6%
residual activity [10]: 96.7%
residual activity [11]: 104%
residual activity [12]: 99.3%
residual activity [13]: 57.7%
residual activity [14]: 101%
residual activity [15]: 104%
residual activity [16]: 104%
residual activity [17]: 105%
residual activity [18]: 98.1%
residual activity [19]: 85.9%
residual activity [20]: 104%
residual activity [21]: 109%
residual activity [22]: 93.1%
residual activity [23]: 101%
residual activity [24]: 102%
residual activity [25]: 104%
residual activity [26]: 109%
residual activity [27]: 101%
residual activity [28]: 102%
residual activity [29]: 101%
residual activity [30]: 106%
residual activity [31]: 97.4%
residual activity [32]: 80.9%
residual activity [33]: 93.5%
residual activity [34]: 98.7%
residual activity [35]: 101%
residual activity [36]: 103%
residual activity [37]: 89.8%
residual activity [38]: 92.7%
residual activity [39]: 97.2%
residual activity [40]: 93.7%
residual activity [41]: 104%
